Tests used:
[1] = molecular target: T1, Prostaglandin G/H synthase 2 (Homo sapiens, UniProt P35354); test: Inhibition of purified recombinant human Prostaglandin G/H synthase 2
T1 sequence (P35354 whole entry): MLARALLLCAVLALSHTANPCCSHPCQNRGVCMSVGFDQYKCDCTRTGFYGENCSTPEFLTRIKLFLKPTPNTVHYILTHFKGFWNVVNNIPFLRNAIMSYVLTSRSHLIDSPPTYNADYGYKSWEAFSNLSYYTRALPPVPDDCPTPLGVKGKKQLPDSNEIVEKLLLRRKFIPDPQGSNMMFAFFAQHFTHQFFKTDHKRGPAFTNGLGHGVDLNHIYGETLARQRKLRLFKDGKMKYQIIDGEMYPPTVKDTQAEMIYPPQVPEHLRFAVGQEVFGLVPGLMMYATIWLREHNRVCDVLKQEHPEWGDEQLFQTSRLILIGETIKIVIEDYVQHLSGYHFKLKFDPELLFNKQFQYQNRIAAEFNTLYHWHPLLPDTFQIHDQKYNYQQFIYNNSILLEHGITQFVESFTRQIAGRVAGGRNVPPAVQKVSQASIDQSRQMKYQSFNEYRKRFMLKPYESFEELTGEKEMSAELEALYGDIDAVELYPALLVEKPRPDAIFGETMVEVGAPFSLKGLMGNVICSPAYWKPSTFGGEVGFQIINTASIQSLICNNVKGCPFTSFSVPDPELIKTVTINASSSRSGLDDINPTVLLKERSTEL

[2] = molecular target: T1, Prostaglandin G/H synthase 2; test: Inhibition of human Prostaglandin G/H synthase 2 expressed in CHO (chinese hamster ovary) cells; assay type: cell-based
[3] = molecular target: T2, Prostaglandin G/H synthase 1 (Homo sapiens, UniProt P23219); test: Inhibition of Prostaglandin G/H synthase 1 activity in U937 microsomal assay; assay type: microsomes, Microsome
T2 sequence (P23219 whole entry): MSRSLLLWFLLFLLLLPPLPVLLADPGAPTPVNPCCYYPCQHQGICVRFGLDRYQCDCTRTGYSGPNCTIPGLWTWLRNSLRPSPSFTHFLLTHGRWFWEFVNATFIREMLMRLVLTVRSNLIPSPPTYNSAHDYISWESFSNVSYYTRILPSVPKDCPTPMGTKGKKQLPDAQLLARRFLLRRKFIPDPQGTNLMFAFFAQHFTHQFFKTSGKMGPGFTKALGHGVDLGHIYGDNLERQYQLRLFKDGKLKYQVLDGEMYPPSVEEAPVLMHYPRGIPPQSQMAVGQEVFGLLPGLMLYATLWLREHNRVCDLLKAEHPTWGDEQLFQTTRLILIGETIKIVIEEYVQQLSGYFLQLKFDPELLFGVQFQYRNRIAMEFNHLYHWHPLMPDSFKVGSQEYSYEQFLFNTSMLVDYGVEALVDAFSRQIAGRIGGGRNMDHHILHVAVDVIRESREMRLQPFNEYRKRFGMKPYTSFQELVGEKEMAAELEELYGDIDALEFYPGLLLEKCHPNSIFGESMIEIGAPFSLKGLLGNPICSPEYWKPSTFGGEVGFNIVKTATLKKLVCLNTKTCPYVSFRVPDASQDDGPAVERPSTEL

[4] = molecular target: T2, Prostaglandin G/H synthase 1; test: Inhibition of purified recombinant human Prostaglandin G/H synthase 1
Rattus norvegicus [5] = test: In vivo antiinflammatory activity expressed as 50% effective dose was evaluated at 5 hr post dosing in rat pyresis model; assay type: functional
Rattus norvegicus [6] = test: In vivo antiinflammatory activity expressed as 30% effective dose was evaluated in rat paw edema assay; assay type: functional
Rattus norvegicus [7] = test: In vivo antiinflammatory activity expressed as percent inhibition after administration of 3 mg/kg was evaluated in rat paw edema assay; assay type: functional
Rattus norvegicus [8] = test: In vivo antiinflammatory activity expressed as 50% effective dose was evaluated in rat paw edema assay; assay type: functional

IC50 [1] [nM] | IC50 [2] [nM] | IC50 [3] [nM] | IC50 [4] [nM] | SMILES | ED50 (Rattus norvegicus [5]) [mg/kg] | ED30 (Rattus norvegicus [6]) [mg/kg] | inhibition in vivo at 3 mg/kg (Rattus norvegicus [7]) [%] | ED50 (Rattus norvegicus [8]) [mg/kg]
610 | 27 | 1300 | > 100000 | CS(=O)(=O)Nc1cc2c(cc1Sc1nccs1)C(=O)OC2 | – | – | – | –
– | – | 1600 | > 100000 | CS(=O)(=O)Nc1cc2c(cc1Sc1ccc(F)cc1F)C(=O)CC2 | – | – | – | –
480 | 320 | 13000 | > 100000 | CS(=O)(=O)Nc1cc2c(cc1Sc1nccs1)C(=O)CC2 | – | – | – | –
280 | 49 | 14000 | ~100000 | CCc1csc(Sc2cc3c(cc2NS(C)(=O)=O)CCC3=O)n1 | 8.1 | 0.3 | 43 | –
360 | 120 | 4900 | > 100000 | CS(=O)(=O)Nc1cc2c(cc1Sc1ncc(Cl)cc1Cl)C(=O)CC2 | – | 0.7 | – | –
810 | 500 | > 30000 | > 100000 | CS(=O)(=O)Nc1cc2c(cc1Sc1ccccn1)C(=O)CC2 | – | – | – | –
1000 | 640 | > 100000 | > 100000 | Cc1ccc(Sc2cc3c(cc2NS(C)(=O)=O)CCC3=O)nc1 | – | – | – | –
380 | 30 | 620 | > 100000 | Cc1csc(Sc2cc3c(cc2NS(C)(=O)=O)CCC3=O)n1 | – | – | – | –
1700 | > 1800 | > 100000 | > 100000 | Cc1nc(Sc2cc3c(cc2NS(C)(=O)=O)CCC3=O)sc1C | – | – | – | –
310 | 140 | 12000 | > 100000 | C=Cc1csc(Sc2cc3c(cc2NS(C)(=O)=O)COC3=O)n1 | – | – | – | –
520 | 220 | 6100 | > 100000 | CS(=O)(=O)Nc1cc2c(cc1Sc1ncccc1Cl)C(=O)CC2 | – | – | – | –
290 | 11000 | 9300 | > 100000 | CSc1csc(Sc2cc3c(cc2NS(C)(=O)=O)COC3=O)n1 | – | – | – | –
1500 | 870 | > 100000 | > 100000 | Cc1cnc(Sc2cc3c(cc2NS(C)(=O)=O)CCC3=O)s1 | – | – | – | –
1000 | 13 | 6300 | > 100000 | CCc1csc(Sc2cc3c(cc2NS(C)(=O)=O)COC3=O)n1 | 2.7 | 0.16 | 65 | 0.93
6900 | 43 | 350 | > 100000 | Cc1csc(Sc2cc3c(cc2NS(C)(=O)=O)COC3=O)n1 | – | – | – | –

From ChEMBL document CHEMBL1132512, “Substituted heterocyclic analogs as selective COX-2 inhibitors in the flosulide class” (Bioorg Med Chem Lett, 1999)
